Source: patent US20240398773A1, “COMPOSITIONS COMPRISING OTESECONAZOLE” (Mycovia Pharmaceuticals, Inc., priority 2021, published 2024)
Like-named read-outs stand apart in the source and are kept apart here.

Columns and labels:
Format in all cases: in vivo, human
Candida species = test: Phase 2a dose-ranging study in moderate-to-severe acute VVC, effective therapeutic cure; details: Per Protocol population
Procedure: Oteseconazole has previously been evaluated in a Phase 2a multi-center, randomized, double-blind, active-controlled, parallel-group, dose-ranging study in patients with moderate-to-severe acute VVC. A total of 55 subjects with moderate-to-severe acute VVC (severity score ≥6 and a positive fungal KOH test) participated in the study across 4 dose groups: 1) oteseconazole 300 mg qd for 3 days: 2) 600 mg qd for 3 days: 3) 600 mg bid for 3 days; or 4) a single dose of fluconazole 150 mg followed by matching placebo. […] No safety signals of clinical concern were observed from the safety assessments.
The efficacy of oteseconazole in the treatment of moderate-to-severe acute VVC was evaluated at the TOC visit in the Per Protocol population at the Day 28 test of cure (TOC) visit was, 87%, 86%, 86%, and 75% of subjects receiving the low, mid-, or high-dose oteseconazole or comparator arm of fluconazole, respectively, achieved an effective therapeutic cure (defined as having a total clinical signs and symptoms severity score of ≤1 and a negative culture for Candida species) in the Per Protocol population

[1] = Study CL-003 in subjects with tinea pedis, plasma PK; details: for AUC(0-t): read-out: AUC0−8
Procedure: Oteseconazole was slowly absorbed, with median time to peak plasma concentration values that ranged from 5.0 to 6.0 hours after dosing on Days 1 and 14 for all treatments. […] The Cmax values on Day 1 were similar between the mid- and high-dose treatments, since the first dose on that day was 600 mg for each treatment.

Tinea Pedis = test: Study CL-003 therapeutic cure of tinea pedis
Excerpt: Even though the target concentrations were not reached for either dose group in this study, oteseconazole was efficacious in treating TP.

Study CL-004 plasma PK = details: for concentration at 24 h / concentration at 168 day / half-life / Tmax / Cmax / AUC(0-t): human, plasma; for concentration at 24 h: read-out: predicted minimum concentration (Cmin) at 24 hours after the final Day 3 dose; for half-life: read-out: median t1/2 (converted); for Tmax: read-out: median Tmax; for AUC(0-t): read-out: AUC0-8
Procedure: The ty, values were estimated on the basis of blood sampling that was carried out between approximately 7 and 168 days after administration of the first dose. […] The oteseconazole concentrations on Day 168 remained measurable (127, 409, and 1300 ng/mL for the 300 mg QD, 600 mg QD, and 600 mg BID treatment groups, respectively) and remained at or above therapeutic concentrations for the 600 mg QD and 600 mg BID treatment groups.
Based on the calculated Cmin values, only about 50% of the target was met for the 300 mg QD and 600 mg QD treatment groups, with the 600 mg BID treatment group reaching the target anticipated for the 600 mg QD group.

Study CL-017 plasma PK = details: for Tmax: Median
Procedure: Oteseconazole mean (SD) plasma concentration during the intense PK sampling period on Day 1 peaked at 4 hours postdose (1425.8 [672.05] μg/L) and decreased slightly by 8 hours postdose (1301.06 [782.76] μg/L). On Day 2, mean (SD) oteseconazole plasma concentrations were 697.7 (264.40) μg/L at predose, then increased to 1895.0 (640.00) μg/L at 4 hours postdose, and decreased to 1555.6 (392.68) μg/L by 8 hours postdose (FIG. 6).
Over the period of Day 14 to Week 50, oteseconazole plasma concentrations were measured at Day 14, Week 14 (end of dosing), and Week 50 (end of follow-up period). Oteseconazole mean (SD) plasma concentration increased from 1396.9 (709.00) μg/L at Day 14 to 2679.3 (1318.94) μg/L at Week 14 before decreasing to 873.4 (534.49) μg/L at Week 50 (FIG. 7).
Median Tmax occurred at 4.00 hours on Day 2; however, Tmax occurred in a narrower range (2.00 to 8.00 hours) compared with that observed on Day 1. The AUC0-8 was 7570 h*μg/L and 11700 h*μg/L, for Day 1 and Day 2, respectively (Table 17).

[2] = human, plasma, High Dose 1200 mg/300 mg, Day 1
[3] = human, plasma, High Dose 1200 mg/300 mg, Day 14
[4] = human, plasma, Low Dose 200 mg/50 mg, Day 1
[5] = human, plasma, Low Dose 200 mg/50 mg, Day 14
[6] = human, plasma, Mid Dose 600 mg/150 mg, Day 1
[7] = human, plasma, Mid Dose 600 mg/150 mg, Day 14
[8] = 300 mg, 300 mg QD treatment group
[9] = 600 mg, 600 mg BID treatment group
[10] = 600 mg, 600 mg QD treatment group

O[C@@](Cn1cnnn1)(c1ccc(F)cc1F)C(F)(F)c1ccc(-c2ccc(OCC(F)(F)F)cc2)cn1 [Oteseconazole, oteseconazole]
subjects achieving effective therapeutic cure at Day 28 TOC visit (Candida species; high dose, oteseconazole 600 mg bid for 3 days): 86%
subjects achieving effective therapeutic cure at Day 28 TOC visit (Candida species; low dose, oteseconazole 300 mg qd for 3 days): 87%
subjects achieving effective therapeutic cure at Day 28 TOC visit (Candida species; mid dose, oteseconazole 600 mg qd for 3 days): 86%
increase in Cmax, high-dose versus mid-dose treatment ([1]; Day 14, 2-fold dose difference): 15%
increase in concentration (Cmax), mid versus low dose ([1]; Days 1 and 14, 3-fold increase in dose): 2 fold
Cmax achieved as share of target ([1]; high-dose group): about 25%
Cmax [1, 2]: 757 ng/mL
Tmax [1, 2]: 5 h
AUC(0-t) [1, 2]: 3540 ng·h/mL
Cmax [1, 3]: 2520 ng/mL
Tmax [1, 3]: 5.02 h
AUC(0-t) [1, 3]: 17600 ng·h/mL
Cmax [1, 4]: 366 ng/mL
Tmax [1, 4]: 6 h
AUC(0-t) [1, 4]: 1680 ng·h/mL
Cmax [1, 5]: 1090 ng/mL
Tmax [1, 5]: 5 h
AUC(0-t) [1, 5]: 7950 ng·h/mL
Cmax [1, 6]: 679 ng/mL
Tmax [1, 6]: 6 h
AUC(0-t) [1, 6]: 3320 ng·h/mL
Cmax [1, 7]: 2180 ng/mL
Tmax [1, 7]: 5 h
AUC(0-t) [1, 7]: 16100 ng·h/mL
half-life ([1]; human, plasma, blood sampling for 168 days (4032 hours), read-out: terminal phase half-life, range of median values): 86.7 to 172 days
Cmax achieved as share of target ([1]; mid-dose group): about 50%
therapeutic cure (Tinea Pedis; high dose group): 21.4%
therapeutic cure (Tinea Pedis; low dose group): 16.7%
therapeutic cure (Tinea Pedis; mid dose group): 8.3%
share of target Cmin met (Study CL-004 plasma PK; 300 mg QD and 600 mg QD treatment groups): about 50%
concentration at 24 h (Study CL-004 plasma PK; 300 mg, 300 mg QD dose group): 705 ng/mL
concentration at 168 day (Study CL-004 plasma PK; [8]): 127 ng/mL
half-life (Study CL-004 plasma PK; [8]): 75.9 days
concentration at 24 h (Study CL-004 plasma PK; 600 mg, 600 mg BID dose group): 2830 ng/mL
concentration at 168 day (Study CL-004 plasma PK; [9]): 1300 ng/mL
half-life (Study CL-004 plasma PK; [9]): 160 days
concentration at 24 h (Study CL-004 plasma PK; 600 mg, 600 mg QD dose group): 1000 ng/mL
concentration at 168 day (Study CL-004 plasma PK; [10]): 409 ng/mL
half-life (Study CL-004 plasma PK; [10]): 133 days
Tmax (Study CL-004 plasma PK; 300 mg dose): 4 h
Tmax (Study CL-004 plasma PK; 600 mg dose): 5.5 h
Cmax (Study CL-004 plasma PK; Day 1, 300 mg dose): 407 ng/mL
AUC(0-t) (Study CL-004 plasma PK; Day 1, 300 mg dose): 1870 ng·h/mL
Cmax (Study CL-004 plasma PK; Day 1, 600 mg dose): 968 ng/mL
AUC(0-t) (Study CL-004 plasma PK; Day 1, 600 mg dose): 4230 ng·h/mL
Clast (Study CL-017 plasma PK; 3 × 150 mg (450 mg), Day 2, Geometric Mean): 1510 ng/mL
AUC(0-t) (Study CL-017 plasma PK; human, plasma, oral, 450 mg, 3 × 150 mg (450 mg), Day 2, Geometric Mean, read-out: AUC0-8): 11700 ng·h/mL
concentration at 4 h (Study CL-017 plasma PK; human, plasma, oral, 450 mg, Day 2, 4 hours postdose, read-out: mean (SD) plasma concentration): 1900 ng/mL
concentration at 8 h (Study CL-017 plasma PK; human, plasma, oral, 450 mg, Day 2, 8 hours postdose, read-out: mean (SD) plasma concentration): 1560 ng/mL
AUC(0-t) (Study CL-017 plasma PK; human, plasma, oral, 450 mg, Day 2, as given in text, read-out: AUC0-8): 11700 ng·h/mL
AUC(0-t) (Study CL-017 plasma PK; human, plasma, oral, 600 mg, 600 mg dose on Day 1, as given in text, read-out: AUC0-24): 20600 ng·h/mL
AUC(0-t) (Study CL-017 plasma PK; human, plasma, oral, 600 mg, 4 × 150 mg (600 mg), Day 1, Geometric Mean, N 8, read-out: AUC0-24): 20600 ng·h/mL
AUC(0-t) (Study CL-017 plasma PK; human, plasma, oral, 600 mg, 4 × 150 mg (600 mg), Day 1, Geometric Mean, read-out: AUC0-8): 7570 ng·h/mL
concentration at 24 h (Study CL-017 plasma PK; human, plasma, oral, 600 mg, 4 × 150 mg (600 mg), Day 1, Geometric Mean, read-out: Clast): 651 ng/mL
concentration at 24 h (Study CL-017 plasma PK; human, plasma, oral, 600 mg, 24 hours after 600 mg Day 1 dose (predose Day 2), read-out: plasma concentrations, range across subjects): 354 to 1150 ng/mL
concentration at 4 h (Study CL-017 plasma PK; human, plasma, oral, 600 mg, Day 1, 4 hours postdose, read-out: mean (SD) plasma concentration): 1430 ng/mL
concentration at 8 h (Study CL-017 plasma PK; human, plasma, oral, 600 mg, Day 1, 8 hours postdose, read-out: mean (SD) plasma concentration): 1300 ng/mL
AUC(0-t) (Study CL-017 plasma PK; human, plasma, oral, 600 mg, Day 1, as given in text, read-out: AUC0-8): 7570 ng·h/mL
concentration at 24 h (Study CL-017 plasma PK; human, plasma, oral, 600 mg, Day 2, predose, read-out: mean (SD) plasma concentration): 698 ng/mL
concentration at 14 day (Study CL-017 plasma PK; human, plasma, oral, Day 14, read-out: mean (SD) plasma concentration): 1400 ng/mL
concentration at 14 week (Study CL-017 plasma PK; human, plasma, oral, Week 14 (end of dosing), read-out: mean (SD) plasma concentration): 2680 ng/mL
concentration at 50 week (Study CL-017 plasma PK; human, plasma, oral, Week 50 (end of follow-up period), read-out: mean (SD) plasma concentration): 873 ng/mL
Cmax (Study CL-017 plasma PK; human, plasma, oral, 3 × 150 mg (450 mg), Day 2, Geometric Mean): 2010 ng/mL
Tmax (Study CL-017 plasma PK; human, plasma, oral, 3 × 150 mg (450 mg), Day 2): 4 h
Cmax (Study CL-017 plasma PK; human, plasma, oral, 4 × 150 mg (600 mg), Day 1, Geometric Mean): 1620 ng/mL
Tmax (Study CL-017 plasma PK; human, plasma, oral, 4 × 150 mg (600 mg), Day 1): 4.01 h
